Laboratory results reported in patent publication US20140378307A1, “AROMATIC PHOSPHATE ESTERS AS AGROCHEMICAL FORMULATION COMPONENT” (SYNGENTA LIMITED, priority 2011, published 2014).

Legend:
Assay type in all cases: in vivo
[1] = tested on: Septoria tritici; details: S. tritici on wheat, adjuvant 0.2% v/v, conclusion from Table 2
[2] = tested on: Septoria tritici; details: S. tritici on wheat, adjuvant 0.2% v/v, conclusion from Table 1
[3] = tested on: Chenopodium album (CHEAL), Abutilon theophrasti (ABUTH), Setaria viridis (SETVI), Digitaria sanguinalis (DIGSA); assay: Glasshouse weed kill, nicosulfuron with tricresyl phosphate, Phosflex 362, triphenyl phosphate; details: four weed species; for efficacy as adjuvant for nicosulfuron (in words): adjuvant 0.2% v/v, conclusion from Table 7
From the text: (§1) Unless otherwise stated within a specific Example, all aromatic phosphate esters employed were initially formulated as 20% w′w emulsions containing 2% w/w Gohsenol®GLO3 (a polyvinyl alcohol, Nippon Gohsei, Hull, UK) and 2% Pluronic® PE10500 (an ethylene glycol-propylene glycol block copolymer, BASF Aktiengesellschaft, Ludwighsafen, Germany) as surfactants.
The efficacy of the aromatic phosphate esters tricresyl phosphate, Phosflex®362 (2-ethylhexyl diphenyl phosphate) and triphenyl phosphate were tested in a glasshouse against four weed species using the herbicide nicosulfuron. An agrochemical composition was prepared containing 0.5% v/v of the adjuvant Atplus® 411F in a track sprayer, and was applied at a volume of 200 litres per hectare. The other adjuvants were tested at a arte of 0.2% v/v. Nicosulfuron was applied at a rate of either 30 or 60 grams of pesticide per hectare to weeds which had been grown to the 1.3 or 1.4 leaf stage. The weed species were Chenopodium album (CHEAL), Abutilon theophrasti (ABUTH), Setaria viridis (SETVI) and Digitaria sanguinalis (DIGSA).
Each spray test was replicated three times. The efficacy of the herbicide was assessed visually and expressed as a percentage of the leaf area killed. Samples were assessed at time periods of 14 and 21 days following application. The results shown in Table 7 below are mean averages over the two rates of nicosulfuron, three replicates, four weed species and the two assessment timings, and are compared to the efficacy of nicosulfuron in the absence of adjuvant and nicosulfuron in the presence of the known tank mix adjuvant Atplus®411F.

[4] = tested on: Abutilon theophrasti (ABUTH), Chenopodium album (CHEAL), Digitaria sanguinalis (DIGSA), Setaria viridis (SETVI); assay: Glasshouse weed kill, nicosulfuron with Phosflex 31L and comparison adjuvants; details: nicosulfuron 30 or 60 g/ha, 200 l/ha; Atplus 411F 0.5% v/v, other adjuvants 0.2% v/v; leaf area killed; mean over two rates, three replicates, four weed species, 14 and 21 days
From the text: as §1
The efficacy of the aromatic phosphate ester Phosflex®31L (isopropylated triphenyl phosphate) as an adjuvant for the herbicide nicosulfuron was tested against four weed species in the glasshouse and compared to the well-known tank mix adjuvant Atplus®411F as well as to a aromatic ester lacking the a phosphate moiety, butylene glycol benzoate. An agrochemical composition was prepared containing 0.5% v/v of the adjuvant Atplus 411F with the test compound in a track sprayer, and was applied at a volume of 200 litres per hectare. The other adjuvants were used at a rate of 0.2% v/v. Nicosulfuron was applied at a rate of either 30 or 60 grams per hectare. Nicosulfuron was applied to weeds which had been grown to the 1.3 or 1.4 leaf stage. […]
(§2) Each spray test was replicated three times. The efficacy of the herbicide was assessed visually and expressed as a percentage of the leaf area killed. Samples were assessed at time periods of 14 and 21 days following application. […]

[5] = tested on: Chenopodium album (CHEAL), Abutilon theophrasti (ABUTH), Setaria viridis (SETVI), Xanthium strumarium (XANST); assay: Glasshouse weed kill, fomesafen with Phosflex 31L and comparison adjuvants
From the text: as §1
The efficacy of the aromatic phosphate ester Phosflex®31L (isopropylated triphenyl phosphate) as an adjuvant for the herbicide fomesafen was tested against four weed species in the glasshouse and compared to the well-known tank mix adjuvant Turbocharge® as well as to a aromatic ester lacking the a phosphate moiety, butylene glycol benzoate. An agrochemical composition was prepared containing 0.5% v/v of the adjuvant Turbocharge with the test compound in a track sprayer, and was applied at a volume of 200 litres per hectare. Fomesafen was applied at a rate of either 60 or 120 grams per hectare. The other adjuvants were applied at a rate of 0.2% v/v. Fomesafen was applied to weeds which had been grown to the 1.3 or 1.4 leaf stage. […]
(§3) Each spray test was replicated three times. The efficacy of the herbicide was assessed visually and expressed as a percentage of the leaf area killed. Samples were assessed at time periods of 7, 14 and 21 days following application. […]

[6] = tested on: Chenopodium album (CHEAL), Abutilon theophrasti (ABUTH), Setaria viridis (SETVI), Xanthium strumarium (XANST); assay: Glasshouse weed kill, fomesafen with tricresyl phosphate, Phosflex 362, triphenyl phosphate; details: fomesafen 60 or 120 g/ha, 200 l/ha; Turbocharge 0.5% v/v, other adjuvants 0.2% v/v; leaf area killed; mean over two rates, three replicates, four weeds, 7, 14 and 21 days
From the text: as §1
The efficacy of the aromatic phosphate esters tricresyl phosphate, Phosflex®362 (2-ethylhexyl diphenyl phosphate) and triphenyl phosphate as adjuvants were tested in a glasshouse against four weed species using the herbicide fomesafen. An agrochemical composition was prepared containing 0.5% v/v of the adjuvant Turbocharge® in a track sprayer and was applied at a volume of 200 litres per hectare. The other adjuvants were tested at a rate of 0.2% v/v. Fomesafen was applied at a rate of either 60 or 120 grams per hectare on weeds which had been grown to the 1.3 or 1.4 leaf stage. […]
as §3

[7] = tested on: Alopecurus myosuroides (ALOMY), Avena fatua (AVEFA), Lolium perenne (LOLPE), Setaria viridis (SETVI); assay: Glasshouse weed kill, pinoxaden with tricresyl phosphate, Phosflex 362, triphenyl phosphate; details: pinoxaden 7.5 or 15 g/ha, 200 l/ha; TEHP 0.5% v/v, other adjuvants 0.2% v/v; leaf area killed; mean over two rates, three replicates, four weeds, 14 and 21 days
From the text: as §1
The efficacy of the aromatic phosphate esters tricresyl phosphate, Phosflex®362 (2-ethylhexyl diphenyl phosphate) and triphenyl phosphate were tested in a glasshouse against four weed species using the herbicide pinoxaden. An agrochemical composition was prepared containing 0.5% v/v of the adjuvant TEHP in a track sprayer and was applied at a volume of 200 litres per hectare. The other adjuvants were tested at a rate of 0.2% v/v. Pinoxaden was applied at either 7.5 or 15 grams per hectare on each of the weed species. The weed species and their growth stage at spraying were Alopecurus myosuroides (ALOMY; growth stage 13), Avena fatua (AVEFA; growth stage 12); Lolium perenne (LOLPE; growth stage 13), Setaria viridis (SETVI; growth stage 14).
as §2

[8] = tested on: Alopecurus myosuroides (ALOMY), Avena fatua (AVEFA), Lolium perenne (LOLPE), Setaria viridis (SETVI); assay: Glasshouse weed kill, pinoxaden with Phosflex 31L and comparison adjuvants; details: pinoxaden 7.5 or 15 g/ha, 200 l/ha; TEHP 0.5% v/v, other adjuvants 0.2% v/v; leaf area killed; mean over two rates, three replicates, four weed species, 14 and 21 days
Experimental: as §1
The efficacy of the aromatic phosphate ester Phosflex®31L (isopropylated triphenyl phosphate) as an adjuvant was tested in a glasshouse against four weed species using the herbicide pinoxaden. An agrochemical composition was prepared containing 0.2% v/v of the adjuvant in a track sprayer and was applied at a volume of 200 litres per hectare. Pinoxaden was applied at either 7.5 or 15 grams of pesticide per hectare on each of the weed species. The adjuvant TEHP was tested at a different rate from the other adjuvants, it being used at 0.5% v/v. The weed species and their growth stage at spraying were Alopecurus myosuroides (ALOMY; growth stage 13), Avena fatua (AVEFA; growth stage 12); Lolium perenne (LOLPE; growth stage 13), Setaria viridis (SETVI; growth stage 14).
as §2

[9] = tested on: Polygonum convolvulus (POLCO), Brachiaria platyphylla (BRAPL), Digitaria sanguinalis (DIGSA), Amaranthus tuberculatus (AMATU); assay: Glasshouse weed kill, mesotrione with tricresyl phosphate, Phosflex 362, triphenyl phosphate; details: mesotrione 60 or 120 g/ha, 200 l/ha; Turbocharge 0.5% v/v, other adjuvants 0.2% v/v; leaf area killed; mean over two rates, three replicates, four weeds, 7, 14 and 21 days
[10] = tested on: Polygonum convolvulus (POLCO), Brachiaria platyphylla (BRAPL), Digitaria sanguinalis (DIGSA), Ambrosia artemisiifolia (AMBAR); assay: Glasshouse weed kill, mesotrione with Phosflex 31L and comparison adjuvants; details: mesotrione 30 or 60 g/ha, 200 l/ha; Tween 20 0.5% v/v, other adjuvants 0.2% v/v; mean over two rates, three replicates, four weed species, three assessment timings
From the text: as §1
The efficacy of the aromatic phosphate ester Phosflex®31L (isopropylated triphenyl phosphate) as an adjuvant for the herbicide mesotrione was tested against four weed species in the glasshouse and compared to the known adjuvant Tween®20 as well as to a aromatic ester lacking the a phosphate moiety, butylene glycol benzoate. An agrochemical composition was prepared containing 0.5% v/v of the adjuvant Tween®20 with the test compound in a track sprayer, and was applied at a volume of 200 litres per hectare. The other adjuvants were tested at a rate of 0.2% v/v. Mesotrione was applied at a rate of either 30 or 60 grams per hectare to weeds which had been grown to the 1.3 or 1.4 leaf stage. The weed species were Polygonum convolvulus (POLCO), Brachiaria platyphylla (BRAPL), Digitaria sanguinalis (DIGSA) and Ambrosia artemisiifolia (AMBAR) […]

Molecule: CCCCC(CC)COP(=O)(Oc1ccccc1)Oc1ccccc1 (stereo not shown) [Phosflex®362, 2-ethylhexyl diphenyl phosphate]
- efficacy as adjuvant for cyproconazole (in words) [1]: performed best as an adjuvant out of the compounds tested
- efficacy as adjuvant for isopyrazam (in words) [2]: more efficacious as an adjuvant than any of the other compounds tested
- efficacy as adjuvant for nicosulfuron (in words) [3]: performing particularly well

Molecule: tricresyl phosphate [tricresylphosphate]
- efficacy as adjuvant for nicosulfuron (in words) [3]: performing particularly well

Molecule: COc1cc(OC)nc(NC(=O)NS(=O)(=O)c2ncccc2C(=O)N(C)C)n1 [Nicosulfuron, nicosulfuron]
- Mean percentage kill, Mean across species ([3]; nicosulfuron 30 or 60 g/ha, 200 l/ha, Atplus 411F 0.5% v/v, other adjuvants 0.2% v/v, leaf area killed, mean over two rates, three replicates, 14 and 21 days): 42.5%
- Mean percentage kill, Mean across species [4]: 74.9 B %

Molecule: CS(=O)(=O)NC(=O)c1cc(Oc2ccc(C(F)(F)F)cc2Cl)ccc1[N+](=O)[O-] [Fomesafen, fomesafen]
- Mean percentage kill, Mean across species ([5]; fomesafen 60 or 120 g/ha, 200 l/ha, Turbocharge 0.5% v/v, other adjuvants 0.2% v/v, leaf area killed, mean over two rates, three replicates, four weed species, 7, 14 and 21 days): 37.7 C %
- Mean percentage kill, Mean across species [6]: 14.3%

Molecule: CCc1cc(C)cc(CC)c1-c1c(OC(=O)C(C)(C)C)n2n(c1=O)CCOCC2 [Pinoxaden, pinoxaden]
- Mean percentage kill, Mean across species [7]: 16.0 C %
- Mean percentage kill, Mean across species [8]: 17.4 D %

Molecule: O=C(OCCCCO)c1ccccc1 [the ester lacking the phosphate moiety, butylene glycol benzoate]
- efficacy as adjuvant for fomesafen (in words) ([5]; four weed species, adjuvant 0.2% v/v, conclusion from Table 4): is not

Molecule: CS(=O)(=O)c1ccc(C(=O)C2C(=O)CCCC2=O)c([N+](=O)[O-])c1 [Mesotrione, mesotrione]
- Mean percentage kill, Mean across species [9]: 34.0 A %
- Mean percentage kill, Mean across species [10]: 47.2 B %
